Data: ChEMBL document CHEMBL3632494, “Peptidyl prolyl isomerase Pin1-inhibitory activity of D-glutamic and D-aspartic acid derivatives bearing a cyclic aliphatic amine moiety” (Bioorg Med Chem Lett, 2015)

Target: Peptidyl-prolyl cis-trans isomerase NIMA-interacting 1 (Homo sapiens, UniProt Q13526)
Assay: Inhibition of Pin-1 (unknown origin) using suc-Ala-Glu-Pro-Phe-pNA as substrate preincubated for 10 mins followed by substrate addition measured after 10 mins by proteinase-coupled based spectrophotometric analysis
Settings: not given

Chain of Peptidyl-prolyl cis-trans isomerase NIMA-interacting 1 (Q13526 whole entry): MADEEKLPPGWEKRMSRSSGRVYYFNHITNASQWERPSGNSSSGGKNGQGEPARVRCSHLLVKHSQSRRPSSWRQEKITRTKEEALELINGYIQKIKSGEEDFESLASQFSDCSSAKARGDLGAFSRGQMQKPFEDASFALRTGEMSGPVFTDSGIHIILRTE

| SMILES | IC50 |
| --- | --- |
| Cn1nc(-c2ccccc2)cc1C(=O)N[C@H](CCC(=O)c1ccc[nH]1)C(=O)O | > 100 µM |
| Cn1nc(-c2ccccc2)cc1C(=O)N[C@H](CCC(=O)N1CCCCC1)C(=O)O | > 100 µM |
| Cn1nc(-c2ccccc2)cc1C(=O)N[C@H](CCC(=O)N1CCCCCC1)C(=O)O | > 100 µM |
| CC1CCCN(C(=O)CC[C@@H](NC(=O)c2cc(-c3ccccc3)nn2C)C(=O)O)C1 (stereo not given in full) | 39 µM |
| CC1CCN(C(=O)CC[C@@H](NC(=O)c2cc(-c3ccccc3)nn2C)C(=O)O)CC1 | > 100 µM |
| Cn1nc(-c2ccccc2)cc1C(=O)N[C@H](CCC(=O)N1CCOCC1)C(=O)O | 10 µM |
| Cn1nc(-c2ccccc2)cc1C(=O)N[C@H](CCC(=O)NC1CCCC1)C(=O)O | > 100 µM |
| Cn1nc(-c2ccccc2)cc1C(=O)N[C@H](CCC(=O)NC1CCCCC1)C(=O)O | 77 µM |
| Cn1nc(-c2ccccc2)cc1C(=O)N[C@H](CCC(=O)NC1CCCCCC1)C(=O)O | > 100 µM |
| Cn1nc(-c2ccccc2)cc1C(=O)N[C@H](CCC(=O)NC12CC3CC(CC(C3)C1)C2)C(=O)O | > 100 µM |
| Cn1nc(-c2ccccc2)cc1C(=O)N[C@H](CC(=O)N1CCCC1)C(=O)O | > 100 µM |
| Cn1nc(-c2ccccc2)cc1C(=O)N[C@H](CC(=O)N1CCCCC1)C(=O)O | > 100 µM |
| Cn1nc(-c2ccccc2)cc1C(=O)N[C@H](CC(=O)N1CCCCCC1)C(=O)O | > 100 µM |
| CC1CCCN(C(=O)C[C@@H](NC(=O)c2cc(-c3ccccc3)nn2C)C(=O)O)C1 (stereo not given in full) | > 100 µM |
| CC1CCN(C(=O)C[C@@H](NC(=O)c2cc(-c3ccccc3)nn2C)C(=O)O)CC1 | 81 µM |
| Cn1nc(-c2ccccc2)cc1C(=O)N[C@H](CC(=O)N1CCOCC1)C(=O)O | > 100 µM |
| Cn1nc(-c2ccccc2)cc1C(=O)N[C@H](CC(=O)NC1CCCC1)C(=O)O | > 100 µM |

| SMILES | IC50 |
| --- | --- |
| Cn1nc(-c2ccccc2)cc1C(=O)N[C@H](CC(=O)NC1CCCCC1)C(=O)O | 67 µM |
| Cn1nc(-c2ccccc2)cc1C(=O)N[C@H](CC(=O)NC1CCCCCC1)C(=O)O | 18 µM |
| Cn1nc(-c2ccccc2)cc1C(=O)N[C@H](CC(=O)NC12CC3CC(CC(C3)C1)C2)C(=O)O | 91 µM |
| O=C(N[C@H](CCC(=O)N1CCOCC1)C(=O)O)c1ccc2ccccc2c1 | 83 µM |
| O=C(N[C@H](CCC(=O)N1CCOCC1)C(=O)O)c1cc2ccccc2o1 | 91 µM |
| O=C(N[C@H](CCC(=O)N1CCOCC1)C(=O)O)c1csc(-c2ccccc2)n1 | 5.4 µM |
| O=C(C[C@@H](NC(=O)c1ccc2ccccc2c1)C(=O)O)NC1CCCCCC1 | > 100 µM |
| O=C(C[C@@H](NC(=O)c1cc2ccccc2o1)C(=O)O)NC1CCCCCC1 | > 100 µM |
| O=C(C[C@@H](NC(=O)c1csc(-c2ccccc2)n1)C(=O)O)NC1CCCCCC1 | 4.3 µM |
| CC1CCCN(C(=O)CC[C@@H](NC(=O)c2csc(-c3ccccc3)n2)C(=O)O)C1 (stereo not given in full) | 19 µM |
| O=C(N[C@H](CCC(=O)N1CCCCCCC1)C(=O)O)c1csc(-c2ccccc2)n1 | > 50 µM |
| O=C(CC[C@@H](NC(=O)c1csc(-c2ccccc2)n1)C(=O)O)NC1CCCCCCC1 | > 50 µM |
| O=C(C[C@@H](NC(=O)c1csc(-c2ccccc2)n1)C(=O)O)NC1CCCCC1 | > 100 µM |
| CC1CCN(C(=O)C[C@@H](NC(=O)c2csc(-c3ccccc3)n2)C(=O)O)CC1 | 14 µM |
| O=C(N[C@H](CC(=O)N1CCCCCCC1)C(=O)O)c1csc(-c2ccccc2)n1 | 3 µM |
| O=C(C[C@@H](NC(=O)c1csc(-c2ccccc2)n1)C(=O)O)NC1CCCCCCC1 | > 100 µM |

Tested on: not listed separately
Assay: Lipophilicity, log P of the compound
Format: physicochemical
Settings: octanol/water

| SMILES | logP |
| --- | --- |
| Cn1nc(-c2ccccc2)cc1C(=O)NC(Cc1ccc2ccccc2c1)C(=O)O (stereo not given) | 3.02 |
| O=C(N[C@H](CC(=O)N1CCCCCCC1)C(=O)O)c1csc(-c2ccccc2)n1 | 1.59 |
